Laboratory results from patent publication US20070134660A1, “Methods for identifying modulators of kinesin activity” (ROSETTA INPHARMATICS LLC, priority 2003, published 2007).

Experiments:
A2780 cells = assay: alamarBlue cell growth assay, candidate KIF14 modulators in A2780 cells; format: cell-based; conditions: Homo sapiens, 48 hour incubation; for EC50: read-out: EC50 (nM), Growth Inhibition in A2780 Cells; for inhibition at 0.0137 µM: [Compound] 13.7 nM; for inhibition at 0.0141 µM: [Compound] 14.1 nM; for inhibition at 0.123 µM: [Compound] 123 nM; for inhibition at 0.37 µM: [Compound] 370 nM; for inhibition at 1.111 µM: [Compound] 1111 nM; for inhibition at 3.333 µM: [Compound] 3333 nM; for inhibition at 10 µM: [Compound] 10000 nM
Method: alamarBlue™ Assay for Cell Growth: The alamarBlue™ assay is a measure of cellular respiration and is used as a measure of live cell number. The internal environment of the proliferating cell is more reduced than that of non-proliferating cells. Specifically, the ratios of NADPH/NADP, FADH/FAD, FMNH/FMN, and NADH/NAF increase during proliferation. alamarBlue™ can be reduced by these metabolic intermediates and, therefore, can be used to monitor cell proliferation.
A2780 cells were plated at a density of 4000/cells per well in RPMI1640 (containing 10% FBS, 1% Pen/Strep, 0.01 mg/ml insulin) in a 96-well plate (Costar, Cat. No. 3606) 16 hours prior to treatment. A compound dilution plate was prepared from a 10 mM stock solution using a 3-fold serial dilution series in DMSO. A 1.2 microliter aliquot of each concentration was transferred into 0.6 ml of medium. A 100 microliter aliquot of each concentration was added to the appropriate wells already containing 100 microliters of compound-free medium. After a 48 hour incubation at 37° C., 20 microliters of alamarBlue™ was added to each well (10% vol/vol). After an additional 6 hour incubation at 37° C., the plates were read on a spectrofluorimeter SpectroMax Gemini (excitation 544 nm, emission 590 nm). The background value (averaged from wells with no cells) was subtracted from each reading.

MKLP-1 (SEQ ID NO:20) = target: T1, MKLP-1 (SEQ ID NO:20) (Homo sapiens, UniProt Q02241); assay: MKLP-1 motor domain ATPase assay; format: biochemical; conditions: read-out: uKHC, nKHC, CENP-E, MKLP-1, KIF1B, MCAK ATPase IC50
T1 construct: His6 (printed only as 'H')
T1 sequence (Q02241 with tags, fused parts or gaps): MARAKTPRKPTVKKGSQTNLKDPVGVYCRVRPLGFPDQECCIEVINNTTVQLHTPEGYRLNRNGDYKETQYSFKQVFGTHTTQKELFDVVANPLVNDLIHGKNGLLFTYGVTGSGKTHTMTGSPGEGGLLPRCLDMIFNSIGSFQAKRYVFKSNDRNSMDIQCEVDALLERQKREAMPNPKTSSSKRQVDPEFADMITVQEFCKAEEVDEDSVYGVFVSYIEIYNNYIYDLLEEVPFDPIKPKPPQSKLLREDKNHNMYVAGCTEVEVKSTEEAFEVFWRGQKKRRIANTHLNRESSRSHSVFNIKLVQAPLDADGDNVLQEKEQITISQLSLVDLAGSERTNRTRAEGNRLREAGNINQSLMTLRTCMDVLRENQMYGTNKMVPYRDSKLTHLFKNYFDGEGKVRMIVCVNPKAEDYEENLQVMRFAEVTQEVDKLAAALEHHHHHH

[1] = target: T2, KIF14 V342-K720 MD protein (SEQ ID NO:4) (Homo sapiens, UniProt Q15058); assay: KIF14 motor domain microtubule-dependent ATPase assay (Quinaldine Red); format: biochemical; conditions: n = 2
T2 construct: made in house; host or cells: E. coli BL21 (DE3)
T2 sequence (Q15058 with tags, fused parts or gaps): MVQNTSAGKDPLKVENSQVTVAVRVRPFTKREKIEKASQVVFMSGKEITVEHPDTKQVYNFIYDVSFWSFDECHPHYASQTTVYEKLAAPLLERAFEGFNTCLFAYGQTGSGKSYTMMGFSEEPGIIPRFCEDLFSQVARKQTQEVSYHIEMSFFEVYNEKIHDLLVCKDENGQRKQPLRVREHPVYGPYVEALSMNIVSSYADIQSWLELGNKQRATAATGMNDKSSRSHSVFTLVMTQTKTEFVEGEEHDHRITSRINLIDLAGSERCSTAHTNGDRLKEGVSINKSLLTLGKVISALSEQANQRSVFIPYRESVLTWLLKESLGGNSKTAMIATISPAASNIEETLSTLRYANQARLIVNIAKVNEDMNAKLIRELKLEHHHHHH
Method: KIF14 Motor Domain Assay: KIF14 MDs were assayed for microtubule (MT)-dependent ATP hydrolysis by measuring the rate of inorganic phosphate (Pi) release using the dye Quinaldine Red, which absorbs light of 540 nm when bound to Pi. Assays (50 microliters) contained 50 mM K-PIPES pH 6.9 (which contains 90 mM KCl), 1 mM EGTA pH 8.0, 1 mM DTT, 100 micrograms/mL BSA, 2 mM MgCl2, 1 mM Na-ATP pH 7.0, 0.25-5 micromolar MT (which contain equimolar amounts of Taxol®), and 20-200 nM KIF14 MD enzyme. Reactions were initiated by the addition of enzyme and allowed to proceed at room temperature until they were quenched at regular time intervals by the addition of 50 microliters of 1.8 M KCl, 50 mM EDTA. To this was added 150 microliters of the Quinaldine Red dye solution (0.07 mg/mL quinaldine red, 0.09% polyvinyl alcohol, 4.1 mM ammonium molybdate, and 380 mM H2SO4). After 10 min incubation at room temperature, absorbance at 540 nm was read on a Molecular Devices Microtiter plate reader. Rates were calculated using the linear (steady-state) phase of the reaction.
Suitability of K14 Motor Domains for high-throughput screening: The motor domain assay was as described above, using 50 mM MES pH 6.0, 20 mM added KCl, 0.5 micromolar MTs, a temperature of 37° C., and varying enzyme concentration from 0 to 10 nM. The signal to background ratio, calculated as the amount of Pi formed after a 90 minute incubation in the presence of enzyme relative to in the absence of enzyme, was determined using different concentrations of the V342-K720 motor domain (SEQ ID NO:4), and is shown in Table 9. A high enough signal over background was obtained at low enzyme concentrations to allow high-through-put screening (HTS). Moreover, the V342-K720 motor domain (SEQ ID NO:4) was stable in the reaction for at least 90 minutes.
Screen for KIF14 Modulators: The ATPase assay described in EXAMPLE 7, as optimized in EXAMPLE 8, was used to screen for compounds that modulated the activity of the KIF14 V342-K720 MD protein (SEQ ID NO:4).

MCAK (SEQ ID NO:22) = MCAK (SEQ ID NO:22) (Homo sapiens, UniProt Q99661); assay: MCAK motor domain ATPase assay; format: biochemical; conditions: read-out: uKHC, nKHC, CENP-E, MKLP-1, KIF1B, MCAK ATPase IC50
Sequence of MCAK (SEQ ID NO:22) (Q99661 183-646): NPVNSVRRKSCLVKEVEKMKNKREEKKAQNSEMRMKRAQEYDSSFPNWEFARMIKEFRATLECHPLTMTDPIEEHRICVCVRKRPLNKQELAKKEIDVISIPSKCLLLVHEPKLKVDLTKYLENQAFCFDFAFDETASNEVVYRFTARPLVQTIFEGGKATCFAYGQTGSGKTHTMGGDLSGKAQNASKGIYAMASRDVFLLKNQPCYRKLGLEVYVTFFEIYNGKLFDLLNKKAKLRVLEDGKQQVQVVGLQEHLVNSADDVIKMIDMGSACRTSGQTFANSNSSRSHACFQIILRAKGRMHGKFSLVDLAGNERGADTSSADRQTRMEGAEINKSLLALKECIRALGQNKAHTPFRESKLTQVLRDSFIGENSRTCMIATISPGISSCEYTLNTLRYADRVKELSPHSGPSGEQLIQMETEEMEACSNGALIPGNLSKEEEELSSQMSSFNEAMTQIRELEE

| Structure (SMILES) | EC50 (A2780 cells) [nM] | inhibition at 0.0137 µM (A2780 cells) [%] | inhibition at 0.0141 µM (A2780 cells) [%] | inhibition at 0.123 µM (A2780 cells) [%] | inhibition at 0.37 µM (A2780 cells) [%] | inhibition at 1.111 µM (A2780 cells) [%] | inhibition at 3.333 µM (A2780 cells) [%] | inhibition at 10 µM (A2780 cells) [%] | IC50 (MKLP-1 (SEQ ID NO:20)) [µM] | IC50 [1] [µM] | IC50 (MCAK (SEQ ID NO:22)) [µM] |
| --- | --- | --- | --- | --- | --- | --- | --- | --- | --- | --- | --- |
| NC(=S)N/N=C\c1ccc(-c2ccccc2)cc1 [compound 1, 1,1′-biphenyl-4-carbaldehyde thiosemicarbazone] | > 10000 | -4.5 | 11.6 | -10.3 | 19 | 18.7 | 23.6 | 31.3 | > 40 | 0.182 | > 40 |
| CC(C)c1ccc(/C=N/NC(N)=S)cc1 [compound 2, 4-isopropylbenzaldehyde thiosemicarbazone] | – | – | – | – | – | – | – | – | > 40 | 0.895 | > 40 |
| NC(=S)N/N=C/c1ccc(C2CCCCC2)cc1 [compound 3, 4-cyclohexylbenzaldehyde thiosemicarbazone] | 3600 | -5.3 | -8.1 | -10.4 | 7.8 | 6 | 39.8 | 107 | > 40 | 0.076 | > 40 |
| CC(C)c1ccc(/C=N/NC(N)=S)cc1[N+](=O)[O-] [compound 4, 4-isopropyl-3-nitrobenzaldehyde thiosemicarbazone] | 7980 | -7 | -4 | -9.2 | 4.4 | 7.5 | 25 | 61.8 | > 40 | 0.054 | > 40 |
